Experimental data reported in PubChem BioAssay (NCI).
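Following 48 hours of exposure in 96-well plates, responses at five concentrations were used to interpolate endpoints linearly. GI50 marks 50% less growth. TGI: concentration producing complete growth inhibition.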

What was measured:
Test in all cases: NCI tumour cell line growth inhibition, 48 h
COLO 205 colon = system: COLO 205 colon
SR leukemia = system: SR leukemia
CCRF-CEM leukemia = system: CCRF-CEM leukemia
A549 NSCLC = system: A549 NSCLC
HCC-2998 colon = system: HCC-2998 colon
KM12 colon = system: KM12 colon
HOP-62 NSCLC = system: HOP-62 NSCLC
SK-MEL-2 melanoma = system: SK-MEL-2 melanoma
OVCAR-5 ovarian = system: OVCAR-5 ovarian
UACC-257 melanoma = system: UACC-257 melanoma

Structure (SMILES)	GI50 (COLO 205 colon)	TGI (COLO 205 colon)	GI50 (SR leukemia)	TGI (SR leukemia)	GI50 (CCRF-CEM leukemia)	TGI (CCRF-CEM leukemia)	GI50 (A549 NSCLC)	TGI (A549 NSCLC)	GI50 (HCC-2998 colon)	TGI (HCC-2998 colon)	GI50 (KM12 colon)	TGI (KM12 colon)	GI50 (HOP-62 NSCLC)	TGI (HOP-62 NSCLC)	GI50 (SK-MEL-2 melanoma)	TGI (SK-MEL-2 melanoma)	GI50 (OVCAR-5 ovarian)	TGI (OVCAR-5 ovarian)	GI50 (UACC-257 melanoma)	TGI (UACC-257 melanoma)
CC1(C)CCc2c(c3c(c4c(=O)c(O)c(-c5ccc(O)cc5)oc24)OC(C)(C)CC3)O1	> 100 µM	> 100 µM	> 100 µM	> 100 µM	> 100 µM	> 100 µM	> 100 µM	> 100 µM	> 100 µM	> 100 µM	> 100 µM	> 100 µM	24.8 µM	54.7 µM	67.2 µM	> 100 µM	> 100 µM	> 100 µM	–	–
COc1ccc(C(=O)Cn2c(C(=O)c3ccccc3)nc(-c3ccc(OC)cc3)c2-c2ccc(OC)cc2)cc1	> 100 µM	> 100 µM	–	–	–	–	> 100 µM	> 100 µM	> 100 µM	> 100 µM	> 100 µM	> 100 µM	74 µM	> 100 µM	66 µM	> 100 µM	> 100 µM	> 100 µM	> 100 µM	> 100 µM
C/C(CC(=O)CCC(=O)Nc1cccc(C(F)(F)F)c1)=N\NC(=O)NN	–	> 100 µM	–	–	–	> 100 µM	–	> 100 µM	–	> 100 µM	–	> 100 µM	–	> 100 µM	–	> 100 µM	–	> 100 µM	–	> 100 µM
NC(Cc1c[nH]c2c(O)cccc12)C(=O)O (stereo unspecified)	> 100 µM	> 100 µM	> 100 µM	> 100 µM	> 100 µM	> 100 µM	> 100 µM	> 100 µM	> 100 µM	> 100 µM	> 100 µM	> 100 µM	> 100 µM	> 100 µM	–	–	> 100 µM	> 100 µM	> 100 µM	> 100 µM
Cc1ccc(NC2=C(Cl)C(=O)N(Cc3ccccc3)C2=O)cc1O	49 µM	> 100 µM	6.91 µM	> 100 µM	29.6 µM	> 100 µM	42.1 µM	> 100 µM	–	–	41.4 µM	> 100 µM	34.8 µM	> 100 µM	7.83 µM	54.8 µM	> 100 µM	> 100 µM	39.5 µM	> 100 µM
CC1(c2ccc(F)cc2)C(C#N)C(=O)NC(=O)C1C#N (stereo unspecified)	–	> 100 µM	–	–	–	> 100 µM	–	> 100 µM	–	> 100 µM	–	> 100 µM	–	> 100 µM	–	> 100 µM	–	> 100 µM	–	> 100 µM
Cc1ccc(N=Nc2ccc(N(CCC#N)CCC#N)cc2C)c(Br)c1	–	> 100 µM	–	–	–	> 100 µM	–	> 100 µM	–	59.4 µM	–	55.8 µM	–	93 µM	–	> 100 µM	–	> 100 µM	–	> 100 µM
CN(C)C(=N)c1ccccc1	–	> 100 µM	–	> 100 µM	–	–	–	> 100 µM	–	> 100 µM	–	> 100 µM	–	> 100 µM	–	> 100 µM	–	> 100 µM	–	> 100 µM
